We go through three compounds from paper doi:10.1101/2025.09.18.677102, “Genomic plasticity drives olfactory adaptation in a pest fly” (bioRxiv, 2025).

Structures are written as SMILES.

The test has as its target T1, DsuzOr22a (Drosophila suzukii, UniProt A0AB39ZTG6).
T1 construct: gene LOC108019602; full-length cDNA in pJFRC81 (GFP removed), UAS line expressed in D. melanogaster ab3A empty neuron (Or22ab-Gal4); with Odorant receptor coreceptor (Drosophila melanogaster, endogenous to the host neuron)
T1 sequence (A0AB39ZTG6 1-397): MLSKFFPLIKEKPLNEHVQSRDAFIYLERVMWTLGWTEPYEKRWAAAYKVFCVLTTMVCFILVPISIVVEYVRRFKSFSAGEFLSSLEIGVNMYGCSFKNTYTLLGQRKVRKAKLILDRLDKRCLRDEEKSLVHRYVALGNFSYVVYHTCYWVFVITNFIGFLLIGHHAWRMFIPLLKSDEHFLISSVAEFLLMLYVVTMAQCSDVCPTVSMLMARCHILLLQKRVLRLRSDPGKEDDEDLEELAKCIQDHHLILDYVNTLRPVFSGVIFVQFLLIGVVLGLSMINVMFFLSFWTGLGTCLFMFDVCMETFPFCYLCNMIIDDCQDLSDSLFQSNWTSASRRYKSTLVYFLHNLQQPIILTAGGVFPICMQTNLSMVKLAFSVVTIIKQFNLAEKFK
T1 sequence (Q9VNB5 1-486 partner): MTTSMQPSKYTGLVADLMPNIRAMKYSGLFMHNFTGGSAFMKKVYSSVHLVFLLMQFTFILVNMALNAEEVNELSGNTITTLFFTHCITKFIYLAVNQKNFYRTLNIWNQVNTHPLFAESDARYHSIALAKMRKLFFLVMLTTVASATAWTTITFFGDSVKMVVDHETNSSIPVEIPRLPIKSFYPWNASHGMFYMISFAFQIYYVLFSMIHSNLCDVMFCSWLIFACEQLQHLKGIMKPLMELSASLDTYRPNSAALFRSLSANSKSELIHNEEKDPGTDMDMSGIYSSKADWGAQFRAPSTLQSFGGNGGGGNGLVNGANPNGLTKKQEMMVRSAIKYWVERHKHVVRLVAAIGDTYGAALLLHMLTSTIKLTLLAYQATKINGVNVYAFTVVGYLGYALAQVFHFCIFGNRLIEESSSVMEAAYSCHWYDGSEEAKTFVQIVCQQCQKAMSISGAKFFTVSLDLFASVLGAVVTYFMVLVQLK
In words: single sensillum recording, empty neuron. It counts as cell-based. The note with it: odorant 10^-4 dilution in hexane.

Take `CC(=O)OCCC(C)C` [isoamyl acetate]: the “responses (spikes/s)” value is “toward several ripening fruit esters such as isobutyl acetate, butyl acetate, and isoamyl acetate”.
For `CC(=O)OCC(C)C` [isobutyl acetate], the “responses (spikes/s)” value (also dilution series) is listed as “Or22a, which has shifted its tuning toward several ripening fruit esters such as isobutyl acetate”.
With `CCCCOC(C)=O` [butyl acetate], the “responses (spikes/s)” value was “toward several ripening fruit esters such as isobutyl acetate, butyl acetate, and isoamyl acetate”.
